# Assay results reported in PubChem BioAssay AID328 (DTP/NCI, 2004).
# Values joined by “and” are separate entries in the source; they are usually repeats but may differ in a detail not shown here. Equal entries are not always repeated. Inconclusive results and toxic doses are left out. Residues, ends and D or L forms follow the SMILES beside them. *: point of attachment. Cbz = O=C(OCc1ccccc1)*; NHNH2 = NN*
# Tested on: BDF1 mice, P388 leukemia ip, median survival T/C
# Assay: NCI In Vivo Anticancer Drug Screen. Data for tumor model P388 Leukemia (intraperitoneal) in B6D2F1 (BDF1) mice
# Settings: endpoint: median survival time, higher = longer survival
# Outline: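 Vehicle-dosed animals serve as the reference; survival of compound-dosed, tumour-implanted mice is divided by it.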
# [1] = dose: 12.5 mg/kg/injection, schedule: Q01DX009 (ip), vehicle: water
# [2] = dose: 25.0 mg/kg/injection, schedule: Q01DX009 (ip), vehicle: water
# [3] = dose: 50.0 mg/kg/injection, schedule: Q01DX009 (ip), vehicle: Klucel (hydroxypropylcellulose) (HPC)
# [4] = dose: 100.0 mg/kg/injection, schedule: Q04DX003 (ip), vehicle: saline
# [5] = dose: 200.0 mg/kg/injection, schedule: Q04DX003 (ip), vehicle: saline
# [6] = dose: 6.25 mg/kg/injection, schedule: Q01DX009 (ip), vehicle: saline
# [7] = dose: 12.5 mg/kg/injection, schedule: Q01DX009 (ip), vehicle: saline
# [8] = dose: 100.0 mg/kg/injection, schedule: Q04DX003 (ip), vehicle: saline with Tween-80
# [9] = dose: 200.0 mg/kg/injection, schedule: Q04DX003 (ip), vehicle: saline with Tween-80
# [10] = dose: 12.5 mg/kg/injection, schedule: Q01DX009 (ip), vehicle: Klucel (hydroxypropylcellulose) (HPC)
# [11] = dose: 25.0 mg/kg/injection, schedule: Q01DX009 (ip), vehicle: Klucel (hydroxypropylcellulose) (HPC)
# [12] = dose: 400.0 mg/kg/injection, schedule: Q04DX003 (ip), vehicle: saline with Tween-80
smiles,measurement,setting,value
COC(=O)CCC1(c2ccccc2)CCCC1=O (stereo not given),T/C,[1],103 % of control
same,T/C,[2],92 % of control
same,T/C,"dose: 100.0 mg/kg/injection, schedule: Q01DX009 (ip), vehicle: water",94 % of control
same,T/C,"dose: 200.0 mg/kg/injection, schedule: Q04DX003 (ip), vehicle: water",96 % of control
same,T/C,"dose: 300.0 mg/kg/injection, schedule: Q04DX003 (ip), vehicle: water",100 % of control
same,T/C,"dose: 400.0 mg/kg/injection, schedule: Q04DX003 (ip), vehicle: water",91 % of control
CCOC(=O)C1(C(=O)OCC)COC(C)(C)OC1,T/C,[3],115 % of control
same,T/C,[4],104 % of control
same,T/C,"dose: 175.0 mg/kg/injection, schedule: Q04DX003 (ip), vehicle: saline",118 % of control
same,T/C,"dose: 200.0 mg/kg/injection, schedule: Q01DX009 (ip), vehicle: Klucel (hydroxypropylcellulose) (HPC)",105 % of control
same,T/C,[5],100 % of control and 113 % of control
same,T/C,"dose: 265.0 mg/kg/injection, schedule: Q04DX003 (ip), vehicle: saline",113 % of control
same,T/C,"dose: 400.0 mg/kg/injection, schedule: Q01DX009 (ip), vehicle: Klucel (hydroxypropylcellulose) (HPC)",105 % of control
same,T/C,"dose: 400.0 mg/kg/injection, schedule: Q04DX003 (ip), vehicle: saline",113 % of control and 122 % of control
same,T/C,"dose: 600.0 mg/kg/injection, schedule: Q04DX003 (ip), vehicle: saline",109 % of control
C=C/C=C\N(CC)CC,T/C,"dose: 0.78 mg/kg/injection, schedule: Q01DX009 (ip), vehicle: water",110 % of control
same,T/C,"dose: 1.56 mg/kg/injection, schedule: Q01DX009 (ip), vehicle: water",109 % of control and 112 % of control
same,T/C,"dose: 3.12 mg/kg/injection, schedule: Q01DX009 (ip), vehicle: water",107 % of control and 121 % of control
same,T/C,"dose: 6.25 mg/kg/injection, schedule: Q01DX009 (ip), vehicle: water",89 % of control and 100 % of control and 102 % of control
same,T/C,[1],102 % of control and 123 % of control
same,T/C,[2],89 % of control and 116 % of control and 118 % of control
OC1OCCOC1O (stereo not given),T/C,"dose: 17.8 mg/kg/injection, schedule: Q01DX009 (ip), vehicle: saline",101 % of control
same,T/C,"dose: 26.6 mg/kg/injection, schedule: Q01DX009 (ip), vehicle: saline",112 % of control
same,T/C,"dose: 40.0 mg/kg/injection, schedule: Q01DX009 (ip), vehicle: saline",110 % of control
same,T/C,"dose: 65.0 mg/kg/injection, schedule: Q01DX009 (ip), vehicle: saline",121 % of control
same,T/C,"dose: 100.0 mg/kg/injection, schedule: Q01DX009 (ip), vehicle: saline",166 % of control
same,T/C,"dose: 150.0 mg/kg/injection, schedule: Q01DX009 (ip), vehicle: saline",169 % of control
same,T/C,"dose: 178.0 mg/kg/injection, schedule: Q01DX009 (ip), vehicle: saline",166 % of control
same,T/C,"dose: 200.0 mg/kg/injection, schedule: Q01DX009 (ip), vehicle: saline",166 % of control
same,T/C,"dose: 266.0 mg/kg/injection, schedule: Q01DX009 (ip), vehicle: saline",165 % of control
same,T/C,"dose: 400.0 mg/kg/injection, schedule: Q01DX009 (ip), vehicle: saline",157 % of control and 161 % of control and 168 % of control
C=C(CN(CC(=C)C(=O)c1ccccc1)C(C)(C)C)C(=O)c1ccccc1,T/C,"dose: 6.25 mg/kg/injection, schedule: Q01DX009 (ip), vehicle: saline with Tween-80",106 % of control
same,T/C,"dose: 12.5 mg/kg/injection, schedule: Q01DX009 (ip), vehicle: saline with Tween-80",111 % of control
same,T/C,"dose: 25.0 mg/kg/injection, schedule: Q01DX009 (ip), vehicle: saline with Tween-80",103 % of control
CNC(=N)c1ccc(NC(=N)c2ccc(NC(=N)c3ccc(NC(=O)Nc4ccc(C(=N)NC)cc4)cc3)cc2)cc1,T/C,"dose: 1.1 mg/kg/injection, schedule: Q04DX003 (ip), vehicle: saline",122 % of control
same,T/C,"dose: 2.4 mg/kg/injection, schedule: Q01DX009 (ip), vehicle: saline",170 % of control
same,T/C,"dose: 3.6 mg/kg/injection, schedule: Q01DX009 (ip), vehicle: saline",187 % of control
same,T/C,"dose: 5.0 mg/kg/injection, schedule: Q01DX009 (ip), vehicle: saline",154 % of control and 157 % of control
same,T/C,"dose: 5.3 mg/kg/injection, schedule: Q01DX009 (ip), vehicle: saline",195 % of control
same,T/C,"dose: 5.3 mg/kg/injection, schedule: Q04DX003 (ip), vehicle: saline",154 % of control
same,T/C,[6],161 % of control
same,T/C,"dose: 8.0 mg/kg/injection, schedule: Q01DX009 (ip), vehicle: saline",165 % of control
same,T/C,"dose: 12.0 mg/kg/injection, schedule: Q01DX009 (ip), vehicle: saline",188 % of control
same,T/C,"dose: 12.0 mg/kg/injection, schedule: Q04DX003 (ip), vehicle: saline",154 % of control
same,T/C,[7],230 % of control
same,T/C,"dose: 18.0 mg/kg/injection, schedule: Q01DX009 (ip), vehicle: saline",230 % of control
same,T/C,"dose: 18.0 mg/kg/injection, schedule: Q04DX003 (ip), vehicle: saline",187 % of control
same,T/C,"dose: 25.0 mg/kg/injection, schedule: Q04DX003 (ip), vehicle: saline",250 % of control
CCC(=O)Oc1c(Cl)c(Cl)c(C#N)c(Cl)c1Cl,T/C,[8],108 % of control
same,T/C,[9],116 % of control
CS(=O)(=O)OCCCOS(C)(=O)=O,T/C,[10],109 % of control
same,T/C,[11],109 % of control
same,T/C,[3],119 % of control
same,T/C,"dose: 100.0 mg/kg/injection, schedule: Q01DX009 (ip), vehicle: Klucel (hydroxypropylcellulose) (HPC)",95 % of control
same,T/C,[4],109 % of control
same,T/C,[5],118 % of control
O=C(O)/C=C/c1ccccc1C(=O)O,T/C,"dose: 100.0 mg/kg/injection, schedule: Q01DX001 (ip), vehicle: saline",100 % of control
same,T/C,"dose: 200.0 mg/kg/injection, schedule: Q01DX001 (ip), vehicle: saline",100 % of control
same,T/C,"dose: 400.0 mg/kg/injection, schedule: Q01DX001 (ip), vehicle: saline",109 % of control
C=C(Br)CNCCCCCC,T/C,"dose: 4.68 mg/kg/injection, schedule: Q04DX003 (ip), vehicle: Klucel (hydroxypropylcellulose) (HPC)",95 % of control
same,T/C,"dose: 9.37 mg/kg/injection, schedule: Q04DX003 (ip), vehicle: Klucel (hydroxypropylcellulose) (HPC)",100 % of control
same,T/C,[10],109 % of control
same,T/C,"dose: 18.75 mg/kg/injection, schedule: Q04DX003 (ip), vehicle: Klucel (hydroxypropylcellulose) (HPC)",108 % of control
same,T/C,[11],118 % of control
same,T/C,"dose: 37.5 mg/kg/injection, schedule: Q04DX003 (ip), vehicle: Klucel (hydroxypropylcellulose) (HPC)",86 % of control
same,T/C,[3],113 % of control
CCCCCCCCC[N+]12CC[N+](CCCCCCCCC)(CC1)CC2,T/C,"dose: 3.13 mg/kg/injection, schedule: Q01DX009 (ip), vehicle: saline",101 % of control
same,T/C,[6],97 % of control
same,T/C,[7],98 % of control
Cc1ccc(NS(=O)(=O)c2ccccc2)cc1,T/C,[8],100 % of control
same,T/C,[9],100 % of control
same,T/C,[12],110 % of control
CC(C)C(NC(=O)C1CCCN1C(=O)OCc1ccccc1)C(=O)NN (stereo not drawn) (Cbz-Pro-Val-NHNH2; configuration not given here),T/C,"dose: 50.0 mg/kg/injection, schedule: Q04DX003 (ip), vehicle: saline with Tween-80",100 % of control
same,T/C,[8],100 % of control
same,T/C,[9],91 % of control
same,T/C,[12],100 % of control
O/N=C/c1ccccc1O.O/N=C/c1ccccc1O.[Cu],T/C,"dose: 6.25 mg/kg/injection, schedule: Q04DX003 (ip), vehicle: saline with Tween-80",118 % of control
same,T/C,"dose: 12.5 mg/kg/injection, schedule: Q04DX003 (ip), vehicle: saline with Tween-80",109 % of control
same,T/C,"dose: 16.5 mg/kg/injection, schedule: Q04DX003 (ip), vehicle: saline with Tween-80",114 % of control
same,T/C,"dose: 25.0 mg/kg/injection, schedule: Q04DX003 (ip), vehicle: saline with Tween-80",123 % of control
